“And” between values parts separate entries of the source, which are not always exact repeats. Identical values can stand only once.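 Each compound was tested at five concentrations against cells in 96-well plates for 48 hours. At the GI50, growth is halved. Definition used: TGI = concentration required for complete inhibition of growth.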
Tests used:
Test in all cases: NCI-60 cell line screen, 48 h
HCC-2998 colon = tested on: HCC-2998 colon
MCF7 breast = tested on: MCF7 breast
OVCAR-3 ovarian = tested on: OVCAR-3 ovarian
OVCAR-5 ovarian = tested on: OVCAR-5 ovarian
OVCAR-8 ovarian = tested on: OVCAR-8 ovarian
SF-539 CNS = tested on: SF-539 CNS

Compound	GI50 (HCC-2998 colon)	TGI (HCC-2998 colon)	TGI (MCF7 breast)	GI50 (OVCAR-3 ovarian)	TGI (OVCAR-3 ovarian)	GI50 (OVCAR-5 ovarian)	TGI (OVCAR-5 ovarian)	GI50 (OVCAR-8 ovarian)	TGI (OVCAR-8 ovarian)	GI50 (SF-539 CNS)	TGI (SF-539 CNS)	GI50 (MCF7 breast)
CSc1nsc(S/C=C\C(=O)c2ccc(C)cc2)n1	17.8 µM	33.8 µM	35.4 µM	17 µM	34.5 µM	22.7 µM	49.6 µM	22.5 µM	57.5 µM	19 µM	36.2 µM	
COC(=O)c1ccc(CN2C(=O)C(Cl)=C(Nc3ccc(OC)c(Cl)c3)C2=O)cc1			> 50 µM	21.6 µM	> 50 µM	17.8 µM	44.1 µM	23.8 µM	> 50 µM			12.6 µM
COC(=O)c1ccc2c(c1)C(=O)c1c-2n(CCCN)c(=O)c2cc(OC)c(OC)cc12	11.9 µM	25.9 µM	29.3 µM	10.2 µM	> 56.8 µM	18.8 µM	33.9 µM	14.5 µM	> 55 µM	17.7 µM	34.7 µM	8.79 µM
COc1ccc(/C=C\c2cc(OC)c(OC)c(OC)c2)c(NS(=O)(=O)c2ccc(Cl)cc2)c1O	0.429 µM	16.4 µM	> 100 µM	0.0602 µM	10.7 µM	2.86 µM	33.8 µM	0.294 µM	80.6 µM	0.0371 µM	10.5 µM	0.0384 µM
COC(=O)C(=O)C(C(=O)C(N)=O)c1nc2ccc(C(=O)c3ccccc3)cc2[nH]c1=O (stereo unspecified)		> 100 µM	> 100 µM		> 100 µM		> 100 µM		> 100 µM		> 100 µM	
Cc1cnc(Nc2ccc(OCCN3CCCC3)cc2)nc1Nc1cccc(S(=O)(=O)NC(C)(C)C)c1	0.409 µM and 1.43 µM	4.43 µM and > 7.01 µM	9.16 µM and > 10 µM	0.464 µM and 1.36 µM	14.7 µM and > 10 µM	0.151 µM and 0.928 µM	4.51 µM and > 10 µM	0.666 µM and 2.66 µM	9.03 µM and > 10 µM	0.332 µM and 1.52 µM	2.15 µM and 4.91 µM	0.143 µM and 0.775 µM
Nc1nc(N)nc(CC(=O)O)n1			> 100 µM		> 100 µM		> 100 µM		> 100 µM		> 100 µM	
Clc1ccc2c(c1)C(N1CCNCC1)=Nc1ccccc1O2	1.58 µM	2.92 µM	3.05 µM	2.8 µM	10.4 µM	3.28 µM	12.9 µM	1.86 µM	4 µM	1.75 µM	3.36 µM	1.62 µM
Cc1ccc2sc3ccc(N)cc3c(=O)c2c1		> 100 µM	> 100 µM		> 100 µM		> 100 µM		> 100 µM		> 100 µM	
Cc1cc(=O)oc2cc(OC(=O)N(CCCl)CCCl)ccc12		> 100 µM	> 100 µM		> 100 µM		> 100 µM		> 100 µM		> 100 µM	
COc1cc(/C=C2\CC3C4CC=C5C[C@@H](O)CC[C@]5(C)C4CC[C@]3(C)C2=O)ccc1OCCCn1ccnc1 (stereo partly specified)	14.8 µM	28.3 µM	37.7 µM	19.1 µM	39.4 µM	20.2 µM	41.9 µM	17.1 µM	47.5 µM	15.7 µM	31.1 µM	18.8 µM
CC(C)(C)n1cc(-c2ccnc(NCCCNS(=O)(=O)c3ccc(Br)cc3)c2)c(-c2cccc(O)c2)n1	1.92 µM	3.48 µM	3.98 µM	2.15 µM	4.15 µM	1.87 µM	3.5 µM	2.43 µM	6.88 µM	1.7 µM	3.17 µM	1.88 µM
CC(=O)c1cc(-c2ccccc2N)n(-c2ccc3c(c2)OCO3)c1C	0.304 µM	16.3 µM	> 100 µM	0.066 µM	0.537 µM	0.268 µM	> 100 µM	0.156 µM	> 100 µM	0.181 µM	0.487 µM	0.32 µM
CCOC(=O)Cc1csc(N=Nc2c(O)[nH]c3ccccc23)n1		> 100 µM	> 100 µM		> 100 µM		> 100 µM		> 100 µM		> 100 µM	
CCCCNC(=O)Oc1ccc(/C(=C(/CC)Cc2ccccc2)c2ccc(OCCN3CCCCCC3)cc2)cc1	18.8 µM	38.8 µM	59.6 µM	19.9 µM	42.6 µM	96.3 µM	> 100 µM	19.1 µM	36.6 µM	17 µM	31.3 µM	6.32 µM
CN(C)CCCc1c2ccccc2nc2ccc(Cl)cc12			23.7 µM		57.7 µM		33.3 µM		32.6 µM		33.6 µM	
NNS(=O)(=O)c1cc(C(=O)O)cc(C(=O)O)c1			> 100 µM		> 100 µM		> 100 µM		> 100 µM		> 100 µM	
Oc1c(CN2CCCC2)cc(CSCc2ccccc2)c2cccnc12	1.39 µM	11.9 µM	11.3 µM	0.44 µM	2.7 µM	4.51 µM	17.1 µM	0.462 µM	9.79 µM	1.35 µM	3.93 µM	0.475 µM
COc1cc2c(c(OC)c1OC)-c1ccc(O)c(=O)cc1[C@@H](NC(C)=O)CC2	7.95 µM	> 100 µM and 34.4 µM	> 100 µM and 63.5 µM	4.35 µM	> 100 µM	22.7 µM	> 100 µM	3.77 µM	> 100 µM and 35.7 µM	6.08 µM	45.5 µM and 44 µM	4.37 µM
CC(C(=O)O)c1ccc(-c2ccccc2)c(F)c1 (stereo unspecified)		> 100 µM	> 100 µM		> 100 µM		> 100 µM		> 100 µM		> 100 µM	
CCCCN(CCCC)CCc1c(C)cc(C)c(CCN(CCCC)CCCC)c1O	3.17 µM	32.6 µM	8.13 µM			3.26 µM	> 100 µM	3.28 µM	> 100 µM	3.51 µM	28.2 µM	2.39 µM
COC(=O)[C@H]1[C@H]2C[C@@H]3c4[nH]c5cc(OC)ccc5c4CCN3C[C@H]2C[C@@H](OC(=O)/C=C/c2cc(OC)c(OC)c(OC)c2)[C@@H]1OC	24.2 µM	> 100 µM	23 µM	2.62 µM	6.2 µM	19.3 µM	56.7 µM	4.74 µM	50.4 µM	12.5 µM	25.4 µM	4.75 µM
